Source: ChEMBL document CHEMBL1909046, “DrugMatrix in vitro pharmacology data”

What was measured:
[1] = target: T1, Alpha-2C adrenergic receptor (Homo sapiens, UniProt P18825); test: DRUGMATRIX: Adrenergic Alpha-2C radioligand binding (ligand: [3H] MK-912); assay type: cell membranes, Sf9, Membrane; conditions: sf9
T1 sequence (P18825 whole entry): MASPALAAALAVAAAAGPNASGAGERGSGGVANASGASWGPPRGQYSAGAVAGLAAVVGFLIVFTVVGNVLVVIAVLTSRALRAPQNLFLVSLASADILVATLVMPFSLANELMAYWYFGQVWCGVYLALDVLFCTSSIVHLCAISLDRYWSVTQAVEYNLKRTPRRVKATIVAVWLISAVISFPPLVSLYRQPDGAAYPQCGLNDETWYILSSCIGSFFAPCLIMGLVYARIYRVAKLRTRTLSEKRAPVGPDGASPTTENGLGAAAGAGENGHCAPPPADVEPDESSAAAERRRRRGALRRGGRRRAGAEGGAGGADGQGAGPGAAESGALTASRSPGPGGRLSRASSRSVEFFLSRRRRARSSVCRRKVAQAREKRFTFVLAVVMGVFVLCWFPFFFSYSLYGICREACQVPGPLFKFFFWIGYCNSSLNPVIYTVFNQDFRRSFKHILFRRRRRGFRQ

[2] = target: Beta-3 adrenergic receptor (Homo sapiens, UniProt P13945); test: DRUGMATRIX: Adrenergic beta3 radioligand binding (ligand: [125I] Cyanopindolol); assay type: cell membranes, HEK293, Membrane; conditions: hek293; Not Active = under 50% inhibition at 10 µM
[3] = DRUGMATRIX: GABAA, Muscimol, Central radioligand binding (ligand: [3H] Muscimol); assay type: cell membranes, Rattus norvegicus, Wistar, Brain, Membrane; conditions: Not Active = under 50% inhibition at 10 µM
Leukotriene C4 synthase = target: T2, Leukotriene C4 synthase (Cavia porcellus, UniProt A6XA80); assay type: tissue-based, Lung;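 note: enzyme inhibition assay of leukotriene C4 synthase, using LTA4 as the substrate; in other assays of this panel Not Active means under 50% inhibition at 10 µM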
T2 sequence (A6XA80 whole entry): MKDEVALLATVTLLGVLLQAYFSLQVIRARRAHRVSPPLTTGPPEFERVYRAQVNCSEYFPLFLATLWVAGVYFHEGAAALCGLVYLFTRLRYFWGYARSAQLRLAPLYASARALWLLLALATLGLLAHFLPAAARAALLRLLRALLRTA

[4] = DRUGMATRIX: Phorbol Ester radioligand binding (ligand: [3H] PDBu); assay type: cell membranes, Mus musculus, ICR, Brain, Membrane; conditions: Not Active = under 50% inhibition at 10 µM
[5] = target: Tyrosine-protein kinase Lck (Homo sapiens, UniProt P06239); test: DRUGMATRIX: Protein Tyrosine Kinase, LCK enzyme inhibition (substrate: Poly(Glu:Tyr)); assay type: cell-based, Insect cells; conditions: insect cells; Not Active = under 50% inhibition at 10 µM
Estrogen receptor beta = Estrogen receptor beta (Homo sapiens, UniProt Q92731); conditions: sf9; note: in other assays of this panel Not Active means under 50% inhibition at 10 µM
Chain of Estrogen receptor beta (Q92731 whole entry): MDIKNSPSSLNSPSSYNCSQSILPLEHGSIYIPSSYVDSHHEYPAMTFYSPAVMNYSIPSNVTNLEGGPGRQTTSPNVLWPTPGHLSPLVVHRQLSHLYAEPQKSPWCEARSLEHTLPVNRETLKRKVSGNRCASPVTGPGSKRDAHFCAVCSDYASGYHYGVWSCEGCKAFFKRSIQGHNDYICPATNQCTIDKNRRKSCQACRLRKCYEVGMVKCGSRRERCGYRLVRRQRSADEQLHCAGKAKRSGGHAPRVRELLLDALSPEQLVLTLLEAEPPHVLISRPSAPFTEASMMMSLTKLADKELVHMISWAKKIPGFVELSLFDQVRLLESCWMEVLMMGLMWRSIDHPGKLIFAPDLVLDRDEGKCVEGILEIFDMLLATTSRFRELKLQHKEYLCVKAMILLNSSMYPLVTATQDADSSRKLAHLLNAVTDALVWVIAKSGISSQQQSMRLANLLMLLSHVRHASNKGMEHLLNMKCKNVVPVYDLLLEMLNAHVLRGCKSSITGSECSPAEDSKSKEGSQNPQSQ

Chain of Tyrosine-protein kinase Lck (P06239 whole entry): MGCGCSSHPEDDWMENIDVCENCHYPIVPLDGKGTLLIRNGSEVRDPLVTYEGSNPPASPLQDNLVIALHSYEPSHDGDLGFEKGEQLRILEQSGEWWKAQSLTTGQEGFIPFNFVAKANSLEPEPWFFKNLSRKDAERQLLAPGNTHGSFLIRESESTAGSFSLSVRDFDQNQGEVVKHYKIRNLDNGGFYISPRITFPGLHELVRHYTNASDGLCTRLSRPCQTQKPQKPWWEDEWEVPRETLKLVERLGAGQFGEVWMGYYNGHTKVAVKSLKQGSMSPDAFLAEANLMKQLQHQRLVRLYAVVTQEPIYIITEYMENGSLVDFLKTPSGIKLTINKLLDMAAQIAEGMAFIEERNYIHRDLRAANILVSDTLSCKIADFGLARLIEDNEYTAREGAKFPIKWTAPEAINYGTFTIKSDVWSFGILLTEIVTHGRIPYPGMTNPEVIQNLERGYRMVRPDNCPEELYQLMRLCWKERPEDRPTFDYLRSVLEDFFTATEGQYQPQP
Chain of Beta-3 adrenergic receptor (P13945 whole entry): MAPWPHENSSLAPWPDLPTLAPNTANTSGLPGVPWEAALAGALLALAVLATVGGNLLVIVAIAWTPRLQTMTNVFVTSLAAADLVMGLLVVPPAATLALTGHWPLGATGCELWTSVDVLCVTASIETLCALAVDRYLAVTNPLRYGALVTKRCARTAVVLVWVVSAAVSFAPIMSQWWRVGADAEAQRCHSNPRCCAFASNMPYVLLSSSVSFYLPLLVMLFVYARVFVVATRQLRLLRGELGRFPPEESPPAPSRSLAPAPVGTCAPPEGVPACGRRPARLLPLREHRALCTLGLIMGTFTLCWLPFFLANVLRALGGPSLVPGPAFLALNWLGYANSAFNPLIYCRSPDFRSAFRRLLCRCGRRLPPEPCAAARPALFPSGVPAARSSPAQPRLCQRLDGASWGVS

C[C@@H]1CC[C@@]2(OC1)O[C@H]1[C@@H](O)[C@H]3[C@@H]4CC[C@H]5C[C@@H](O[C@@H]6O[C@H](CO)[C@H](O[C@@H]7O[C@H](CO)C(O)[C@H](O[C@@H]8OC[C@@H](O)[C@H](O)[C@H]8O)[C@H]7O[C@@H]7O[C@H](CO)[C@H](O)[C@H](O[C@@H]8O[C@H](CO)[C@@H](O)[C@H](O)[C@H]8O)[C@H]7O)[C@H](O)[C@H]6O)[C@H](O)C[C@]5(C)[C@H]4CC[C@]3(C)[C@H]1[C@@H]2C (some centres undefined) [DIGITONIN]
Not Active: IC50 [1] | IC50 [2] | IC50 [3] | Ki [3] | IC50 (Leukotriene C4 synthase) | IC50 [4] | Ki [4] | IC50 [5] | IC50 (Estrogen receptor beta)
